According to PMC10709440, “High-throughput ligand profile characterization in novel cell lines expressing seven heterologous insect olfactory receptors for the detection of volatile plant biomarkers” (Scientific Reports, 2023):

Tests used:
[1] = molecular target: T1, Drosophila OR47a (Drosophila melanogaster, UniProt P81921); assay: Calcium ion fluorescence (GCaMP6) assay, OR47a stable HEK293 cell line; format: cell-based; details: for activation at 1 µM / activation at 10 µM / activation at 100 µM: HEK293, read-out: OR47a response (VUAA1-normalized response); for Average response: mean of biological replicates
T1 construct: expressed in transfected cells
T1 sequence (P81921 1-385): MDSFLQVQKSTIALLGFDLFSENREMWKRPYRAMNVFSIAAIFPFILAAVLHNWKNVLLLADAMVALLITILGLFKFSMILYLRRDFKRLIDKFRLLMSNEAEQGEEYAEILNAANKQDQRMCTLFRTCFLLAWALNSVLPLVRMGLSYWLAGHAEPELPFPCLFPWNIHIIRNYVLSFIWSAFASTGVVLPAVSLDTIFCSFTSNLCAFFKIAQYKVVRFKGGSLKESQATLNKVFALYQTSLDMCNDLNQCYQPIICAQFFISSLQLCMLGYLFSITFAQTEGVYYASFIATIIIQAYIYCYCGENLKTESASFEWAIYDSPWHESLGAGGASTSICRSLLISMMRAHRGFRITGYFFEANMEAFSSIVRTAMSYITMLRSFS
T1 sequence (Q9VNB5 1-486 partner): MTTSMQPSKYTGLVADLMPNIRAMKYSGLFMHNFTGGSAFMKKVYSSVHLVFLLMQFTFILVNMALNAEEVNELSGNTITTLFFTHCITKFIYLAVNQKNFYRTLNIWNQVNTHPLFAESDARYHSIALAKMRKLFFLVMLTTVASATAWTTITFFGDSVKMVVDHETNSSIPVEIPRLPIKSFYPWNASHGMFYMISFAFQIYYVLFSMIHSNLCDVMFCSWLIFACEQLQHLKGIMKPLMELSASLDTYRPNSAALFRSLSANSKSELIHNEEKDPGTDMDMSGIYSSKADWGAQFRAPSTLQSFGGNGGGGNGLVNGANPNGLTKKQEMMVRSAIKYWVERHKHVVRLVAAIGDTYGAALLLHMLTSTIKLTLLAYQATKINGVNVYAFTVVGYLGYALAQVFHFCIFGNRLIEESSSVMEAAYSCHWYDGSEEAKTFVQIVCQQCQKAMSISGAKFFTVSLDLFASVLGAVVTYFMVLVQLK
How it was run: (§1)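 HEK293 lines stably expressing each Drosophila OR with GCaMP6, doxycycline-induced (1 μg/mL) 48 or 72 h. Fluorescence recorded 5 s baseline then 30 s after VOC injection at pH 7.3; ΔF=(FMAX−F0)/F0, normalized to 50 µM VUAA1 response per line, triplicate wells averaged; concentration series 0.01–100 μM.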

[2] = molecular target: T2, Drosophila OR85b (Drosophila melanogaster, UniProt Q9VHQ7); assay: Calcium ion fluorescence (GCaMP6) assay, OR85b stable HEK293 cell line; format: cell-based; details: for activation at 1 µM / activation at 10 µM / activation at 100 µM: HEK293, read-out: OR85b response (VUAA1-normalized response); for Average response: VUAA1-normalized response, mean of biological replicates
T2 construct: expressed in transfected cells
T2 sequence (Q9VHQ7 1-390): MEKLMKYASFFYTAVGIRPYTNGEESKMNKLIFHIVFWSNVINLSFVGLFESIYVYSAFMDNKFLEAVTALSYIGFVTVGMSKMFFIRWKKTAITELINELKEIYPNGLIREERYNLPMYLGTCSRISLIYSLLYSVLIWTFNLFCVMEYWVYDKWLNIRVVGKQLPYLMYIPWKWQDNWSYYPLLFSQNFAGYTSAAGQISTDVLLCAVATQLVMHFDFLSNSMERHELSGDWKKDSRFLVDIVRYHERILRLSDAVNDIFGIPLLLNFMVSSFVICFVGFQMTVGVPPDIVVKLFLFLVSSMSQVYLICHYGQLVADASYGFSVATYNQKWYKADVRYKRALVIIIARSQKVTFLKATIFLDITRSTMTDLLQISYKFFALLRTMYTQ
T2 sequence (Q9VNB5 1-486 partner): T1 sequence (Q9VNB5 1-486 partner)
How it was run: as §1

[3] = OR47a cell line, odorant cc. 1 µM
[4] = OR47a cell line, odorant cc. 10 µM
[5] = OR47a cell line, odorant cc. 100 µM
[6] = concentration 1, normalized fluorescence change, values below 0.05 threshold given as 0
[7] = concentration 10, normalized fluorescence change, values below 0.05 threshold given as 0
[8] = concentration 100, normalized fluorescence change, values below 0.05 threshold given as 0
[9] = ligand concentration 1 (unit not given), threshold 0.05, below shown as 0
[10] = ligand concentration 10 (unit not given), threshold 0.05, below shown as 0
[11] = ligand concentration 100 (unit not given), threshold 0.05, below shown as 0

Compound | activation at 1 µM [1] | activation at 10 µM [1] | activation at 100 µM [1] | Average response [1, 3] | Average response [1, 4] | Average response [1, 5] | DF norm AVERAGE OR47a [1, 6] | DF norm AVERAGE OR47a [1, 7] | DF norm AVERAGE OR47a [1, 8] | activation at 1 µM [2] | activation at 10 µM [2] | activation at 100 µM [2] | Average response ([2]; OR85b cell line, cc. 1 µM) | Average response ([2]; OR85b cell line, cc. 10 µM) | Average response ([2]; OR85b cell line, cc. 100 µM) | DF norm AVERAGE OR85b [2, 6] | DF norm AVERAGE OR85b [2, 7] | DF norm AVERAGE OR85b [2, 8] | DF norm AVERAGE OR47a [1, 9] | DF norm AVERAGE OR47a [1, 10] | also measured
Cc1cccc(O)c1 [3-methylphenol] | 0% | 0% | 0% | 0.00 | 0.00 | 0.00 | 0 | 0 | 0 | 0% | 0% | 0% | 0.0267 | 0.0173 | 0.02 | 0 | 0 | 0 |  |  | 
C=C1CC/C=C(\C)CC[C@@H]2[C@@H]1CC2(C)C [(-)-trans-caryophyllene] | 0% | 0% | 0% | 0.0166 | 0.0326 | 0.00 | 0 | 0 | 0 | 0% | 0% | 0% | 0.00 | 0.00 | 0.0238 | 0 | 0 | 0 |  |  | 
CCCCCCCO [1-heptanol] | 0% | 0% | 0% | 0.00 | 0.00 | 0.0219 | 0 | 0 | 0 | 0% | 0% | 0% | 0.00 | 0.00 | 0.00 | 0 | 0 | 0 |  |  | 
C=C(C)[C@H]1CC=C(C)CC1 [limonene] |  |  |  | 0.0214 | 0.00 | 0.00 |  |  |  |  |  |  | 0.07 | 0.09 | 0.0644 |  |  |  | 0 | 0 | OR47a response (VUAA1-normalized response) ([1]; VOC concentration 1 μM): 0.00; OR47a response (VUAA1-normalized response) ([1]; VOC concentration 10 μM): 0.00; OR47a response (VUAA1-normalized response) ([1]; VOC concentration 100 μM): 0.00; DF norm AVERAGE OR47a [1, 11]: 0; OR85b response (VUAA1-normalized response) ([2]; VOC concentration 1 μM): 0.07; OR85b response (VUAA1-normalized response) ([2]; VOC concentration 10 μM): 0.09; OR85b response (VUAA1-normalized response) ([2]; VOC concentration 100 μM): 0.0644; DF norm AVERAGE OR85b [2, 9]: 0.07022; DF norm AVERAGE OR85b [2, 10]: 0.08814; DF norm AVERAGE OR85b [2, 11]: 0.06443
Cc1ccc(C(C)C)cc1 [p-cymene] |  |  |  | 0.00 | 0.00 | 0.00 |  |  |  |  |  |  | 0.00 | 0.12 | 0.09 |  |  |  | 0 | 0 | OR47a response (VUAA1-normalized) at 1 μM ([1]; OR47a cell line, VOC concentration 1 μM): 0.00; OR47a response (VUAA1-normalized) at 10 μM ([1]; OR47a cell line, VOC concentration 10 μM): 0.00; OR47a response (VUAA1-normalized) at 100 μM ([1]; OR47a cell line, VOC concentration 100 μM): 0.00; DF norm AVERAGE OR47a [1, 11]: 0; OR85b response (VUAA1-normalized) at 1 μM ([2]; OR85b cell line, VOC concentration 1 μM): 0.00; OR85b response (VUAA1-normalized) at 10 μM ([2]; OR85b cell line, VOC concentration 10 μM): 0.12; OR85b response (VUAA1-normalized) at 100 μM ([2]; OR85b cell line, VOC concentration 100 μM): 0.09; DF norm AVERAGE OR85b [2, 9]: 0; DF norm AVERAGE OR85b [2, 10]: 0.1172; DF norm AVERAGE OR85b [2, 11]: 0.09049
